Columns and labels:
Type in all cases: in vivo, human
[1] = Phase 1 Study 1 Part 1: ascending single-dose pharmacokinetics in healthy volunteers
From the text: Compound 2 is also known as venglustat.
(§1) Study 1 was a 2-part single-center trial in healthy adult male volunteers.
Part 1 of the study enrolled and randomized 55 healthy men (placebo, n=14; 2-, 5-, 15, 25-, 50, and 100-mg doses, n=6 each; 150-mg dose, n=5). Eight healthy men participated in Part 2. […]

[2] = Phase 1 studies: safety and tolerability; conditions: multiple ascending dose study, vs placebo, any dose
Method: In all studies, safety profile was assessed by monitoring treatment-emergent adverse events (TEAEs) through 10 days after last dose of study medication, including serious adverse events [SAEs]), ECG monitoring, laboratory values, and physical examinations.

[3] = Phase 1 Study 1 Part 2: PK with and without a high-fat meal; conditions: 5 mg single oral dose
From the text: as §1
Part 1 of the study enrolled and randomized 55 healthy men (placebo, n=14; 2-, 5-, 15, 25-, 50, and 100-mg doses, n=6 each; 150-mg dose, n=5). Eight healthy men participated in Part 2.
After a 7-day washout period, participants were crossed over to the other condition.

[4] = system: plasma GL-1, GL-3, and GM3 concentrations; assay: Phase 1 Study 2: pharmacodynamic endpoints (plasma GL-1, GL-3, GM3)
Method: The study enrolled and randomized 36 healthy adults (19 men and 17 women) (n=9 each to group).
Pharmacodynamic endpoints (plasma GL-1, GL-3, and GM3 concentrations) were assessed on Days 1-5, 8, 11, 13, and 14, at 0 hours […]; and on Day 15, at 24 hours after the Day 14 dose.

[5] = across the 3 dose groups (5, 10, 20 mg once daily)

CC(C)(NC(=O)O[C@@H]1CN2CCC1CC2)c1csc(-c2ccc(F)cc2)n1 [Compound 2, (S)-quinuclidin-3-yl 2-(2-(4-fluorophenyl)thiazol-4-yl)propan-2-ylcarbamate]
CL/F, Geometric mean ([1]; single oral dose 2 mg): 6.3 L/h
CL/F, Mean ([1]; single oral dose 2 mg): 6.43 L/h
CL/F, Geometric mean ([1]; single oral dose 5 mg): 5.8 L/h
CL/F, Mean ([1]; single oral dose 5 mg): 5.86 L/h
CL/F, Geometric mean ([1]; single oral dose 15 mg): 5.6 L/h
CL/F, Mean ([1]; single oral dose 15 mg): 5.85 L/h
CL/F, Geometric mean ([1]; single oral dose 25 mg): 5.0 L/h
CL/F, Mean ([1]; single oral dose 25 mg): 5.18 L/h
CL/F, Geometric mean ([1]; single oral dose 50 mg): 5.5 L/h
CL/F, Mean ([1]; single oral dose 50 mg): 5.75 L/h
CL/F, Geometric mean ([1]; single oral dose 100 mg): 5.3 L/h
CL/F, Mean ([1]; single oral dose 100 mg): 5.38 L/h
CL/F, Geometric mean ([1]; single oral dose 150 mg): 5.6 L/h
CL/F, Mean ([1]; single oral dose 150 mg): 5.80 L/h
median time of maximal plasma concentration (Cmax) ([1]; single oral doses of 2 to 150 mg): 3 to 5.5 h
ECG parameters [2]: no ECG parameters changed statistically significantly
effect of high-fat meal on exposure compared with fasting [3]: no effect
Mean estimated plasma GL-1 reductions from baseline attributable to Ctrough ([4]; 5 mg group, Ctrough 19.0 ng/mL): 67.0%
Mean estimated plasma GL-1 reductions from baseline attributable to Ctrough ([4]; 10 mg group, Ctrough 47.5 ng/mL): 74.4%
Mean estimated plasma GL-1 reductions from baseline attributable to Ctrough ([4]; 20 mg group, Ctrough 69.9 ng/mL): 76.3%
subjects with GL-1 below LLOQ ([4]; Day 15, 5 mg group (n=9)): 3 subjects
subjects with GL-3 below LLOQ ([4]; Day 15, 5 mg group (n=9)): 9 subjects
Mean calculated GL-1 reductions from baseline ([4]; Day 15, 5 mg once daily): 41.9%
subjects with GL-1 below LLOQ ([4]; Day 15, 10 mg group (n=9)): 5 subjects
subjects with GL-3 below LLOQ ([4]; Day 15, 10 mg group (n=9)): 7 subjects
subjects with GM3 below LLOQ ([4]; Day 15, 10 mg group (n=9)): 1 subjects
Mean calculated GL-1 reductions from baseline ([4]; Day 15, 10 mg once daily): 69.6%
subjects with GL-1 below LLOQ ([4]; Day 15, 20 mg group (n=9)): 9 subjects
subjects with GL-3 below LLOQ ([4]; Day 15, 20 mg group (n=9)): 9 subjects
subjects with GM3 below LLOQ ([4]; Day 15, 20 mg group (n=9)): 2 subjects
Mean calculated GL-1 reductions from baseline ([4]; Day 15, 20 mg once daily): 74.6%
plasma GL-1 levels vs baseline [4, 5]: decreased from baseline time- and dose-dependently
plasma GM3 levels vs baseline [4, 5]: decreased from baseline time- and dose-dependently
Day on which maximal sustained GM3 decreases started ([4]; all dose groups): 13 days
